Here are results for one compound from patent US20090232735A1, “USE OF FRUCTOSE-BASED THERAPIES FOR THE TREATMENT OF CANCER” (CEDARS-SINAI MEDICAL CENTER, priority 2005, published 2009).

Assay type in all cases: cell-based, human
The subject of experiment [1] is ER negative MDA-MB231 breast cancer cells. The experiment in a line: Breast cancer cell proliferation (MTT assay), MDA-MB231. On the procedure:
Estrogen receptor (ER) positive MCF-7, and ER negative MDA-MB231 cells were plated in 5 mM fructose or glucose for times between 8-72 h, and proliferative rates measured using MTT assay. *, p<0.05; **, p<0.01.
FIG. 5 depicts fructose-mediated increased breast cancer proliferation in accordance with an embodiment of the present invention. ER positive MCF-7, and ER negative MDA-MB231 cells were plated in a range of fructose or glucose concentrations (5-25 mM) for 72 h, after which proliferative rates were measured using an MTT assay. *, p<0.05 for concentrations between 5-25 mM fructose versus glucose.
Standard media for breast cancer cell culture contain either 5-7 mM (low) and 12-25 mM (high) glucose concentrations. Estrogen receptor (ER) positive MCF-7, and ER negative MDA-MB231 cells were cultured overnight in 2 mM glucose standard DMEM medium containing 10% fetal bovine serum prior to incubation for periods between 8, and 72 hours in standard DMEM medium containing 10% fetal bovine serum, and 5 mM glucose or 5 mM fructose.
Proliferative rates were then measured in replicate (minimum of 6) aliquot wells of the breast cancer cells grown in glucose, or fructose containing medium. […] In separate experiments, proliferative rates of the MCF-7, and MDA-MB231 breast cancer cells were compared following culture in a range of fructose, and glucose concentrations (2-25 mM) for 72 hours.
(In general: Tetrazolium assays rely on reduction of a dye to a coloured formazan, in cell work by metabolically active cells.)

Experiment [2] deals with PANC-1 pancreatic cancer cells. The experiment in a line: BRDU uptake in PANC-1 cells. Conditions: PANC-1, 5.5 mM fructose, 72 h. Here is the method: FIG. 16 depicts BRDU uptake following treatment with glucose or fructose in accordance with an embodiment of the present invention. PANC-1 cells were pre-incubated in 2 mM glucose prior to treatment with 5.5 mM glucose or fructose for 72 h. BRDU (0.01 mg/ml) was added to the medium at 48 h, and BRDU-uptake quantified at 72 h.
As a further measure of PANC-1 proliferative rates, the inventors compared bromodeoxyuridine (BRDU) uptake following PANC-1 cell treatment as before with 2 mM, and 5.5 mM glucose, or 5.5 mM fructose for 72 h. In the final 12 h, 10 μM BRDU was added to the glucose-, and fructose-treated cells, after which BRDU-positive cells were counted. […] A further question the inventors sought to address was would the fructose-induced pancreatic cancer proliferative rates be maintained if the PANC-1 cells were also exposed to, and able to utilize their customary culture glucose concentrations. Therefore, the inventors cultured PANC-1 cells for 72 h in a range of glucose concentrations (0-15 mM) admixed with a range of fructose concentrations (0-15 mM).

Experiment [3] has as its system PANC-1 pancreatic cancer cells. As to the kind of experiment: [1,2-13C2] stable isotope metabolic profiling in PANC-1 cells. On the procedure:
FIG. 28 depicts the metabolism of fructose and glucose in pancreatic cancer cells in accordance with an embodiment of the present invention. Lactate generation from glycolysis (a), and hexose oxidation in the pentose and tricarboxylic acid cycles (b) following treatment of PANC-1 cells with 2 mM glucose, 5.5 mM glucose, and 5.5 mM fructose for 72 h. […] In (b), the ^13C to ^12C ratio in the CO2 released from the PANC-1 cells is presented.
FIG. 29 depicts fatty acid synthesis from glucose versus fructose in accordance with an embodiment of the present invention. Fatty acid synthesis represented by (a), ^13C-labelled oleate, (b) ^13C-labelled arachidic acid, and (c) ^13C-labelled 24-carbon fatty acid fraction following treatment of PANC-1 cells with 2 mM, and 5.5 mM glucose, and 5.5 mM fructose for 72 h. For the fatty acids, the fraction of ^13C-labeled oleate, arachidic acid or 24-carbon fatty acid is expressed as percentage of total oleate, arachidic acid or 24-carbon fatty acids, respectively.
FIG. 30 depicts ribose and deoxyribose synthesis following glucose and fructose treatment in accordance with an embodiment of the present invention.
Metabolism comprises anabolic (converting small molecules into big ones) and catabolic processes (converting food into useful energy), predicts the functional state of a cell, and analyzes the levels of the end products (metabolites) of anabolism and catabolism. […] The inventors employed [1, 2-^13C2] glucose, or [1,2-^13C2] fructose stable isotope-based dynamic metabolic profiling (SiDMAP, Los Angeles, US) to track and quantify changes in glucose, and fructose carbon re-distribution among major metabolic pathways in pancreatic cancer cells (Lee W N, Boros L G, Puigjaner J, Bassilian S, Lim S, Cascante M. Mass istopomer study of transketolase-transaldolase pathways of the pentose cycle with [1,2-^13C2]glucose. Am J Physiol 274:E843-51, 1998; Lee W N, Byerley L O, Bassilian S, Ajie H O, Clark I, Edmond J. Isotopomer study of lipogenesis in human hepatoma cells in culture: contribution of carbon and hydrogen atoms from glucose. […]

As for `O=C(CO)[C@@H](O)[C@H](O)[C@H](O)CO` [fructose], the “proliferative rates in fructose compared to glucose” value in experiment [1] (MDA-MB231, 5 mM fructose vs 5 mM glucose, 8-72 h) is on record as “higher proliferative rates”. For the same compound, in experiment [1] (MDA-MB231, 72 hours, 5 mM fructose vs 5-fold higher glucose (25 mM)), the “proliferative rates in 5 mM fructose compared to 25 mM glucose” value is “higher proliferative rates”. For the same compound, the “BRDU-uptake higher than with 5.5 mM glucose” value in experiment [2] is on record as roughly 75%. Further, the “pentose phosphate shunt pathway used (oxidative G6PDH vs non-oxidative TKK)” value in experiment [3] (PANC-1, 5.5 mM sugar, 72 h) was “preferentially metabolized by TKK”. Moreover, in experiment [3] (PANC-1, 13C-labeled sugar, 72 h), the “lactate and CO2 production lower for fructose in comparison to glucose” value is reported as 3-4 fold. Moreover, the “13C-labeled sugar metabolized for fatty acid synthesis” value in experiment [3] (PANC-1, 72 h, fructose compared to glucose) was “comparatively less”.
